What all share (assay): inhibition of tumour cell growth, NCI panel, 48 h
Test [1] has as its system SN12C renal.
For test [2], the system named is HT29 colon.
The subject of test [3] is OVCAR-4 ovarian.
For test [4], the system named is SW-620 colon.
The test system of test [5] is HOP-92 NSCLC.
In test [6] the test system is HCT-15 colon.
For test [7], the system named is NCI/ADR-RES ovarian.
The test system of test [8] is KM12 colon.

The source of these data is PubChem BioAssay (NCI).

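Method: 48-hour compound exposure of cells in 96-well plates, five concentrations, linear interpolation of endpoints. GI50 is the concentration that inhibits growth by half. The concentration for full growth arrest is given as TGI.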

For `COc1ccc2nc3cc([N+](=O)[O-])ccc3c(Nc3ccc(S(=O)(=O)NC(C)=O)cc3)c2c1`, the TGI in test [1], in test [2], in test [3], in test [4], in test [5] and in test [6] was greater than 100 µM in each case.
`CCCCCC(C)SC1(C(=O)OC)CC(OC(C)=O)C(NC(C)=O)C([C@H](OC(C)=O)[C@@H](COC(C)=O)OC(C)=O)O1` (some centres undefined): the TGI in test [1], in test [2], in test [7], in test [8], in test [4] and in test [5] was greater than 100 µM in each case. In addition, the TGI in test [6] was greater than 100 µM.
As to `C[C@@H]1CC[C@H]2C(C(O)CCCCC(O)C3=C(C(F)(F)F)O[C@@H]4O[C@@]5(C)CC[C@H]6[C@H](C)CC[C@@H]3[C@@]46OO5)=C(C(F)(F)F)O[C@@H]3O[C@@]4(C)CC[C@@H]1[C@]32OO4` (some centres undefined), the GI50 was 21 µM in test [1]; 13.6 µM in test [2]; 28.5 µM in test [3]; 4.71 µM in test [8]; 5.64 µM in test [4]; 11.2 µM in test [5]. Besides, the GI50 in test [6] is 9.79 µM. The TGI in test [1], in test [2], in test [3], in test [8], in test [4] and in test [5] was greater than 100 µM in each case. In test [6], this compound showed a TGI greater than 100 µM.
As to `C[C@H]1C[C@H]2[C@@H]3C(C)(C)O[C@]4(O)C(=O)[C@]5(O)[C@@H](C)CC[C@H]1[C@]25C(=O)[C@]34C`, the TGI was greater than 100 µM in test [1]; 70.3 µM in test [2]; greater than 100 µM in test [7]; 99.7 µM in test [8]; greater than 100 µM in test [4]; 62.7 µM in test [5]. In test [6], this compound came in with a TGI greater than 100 µM.
Regarding `COc1ccc(-n2c(=O)n(C)c(=O)n2-c2ccc(OC)cc2)cc1`, the TGI in test [1], in test [2], in test [7], in test [8], in test [4] and in test [5] was greater than 100 µM in each case. The compound further showed a TGI in test [6] greater than 100 µM.
With `C=C(CO[Si](C)(C)C(C)(C)C)C(C)=O`, the TGI is greater than 68.5 µM in test [1]; 40.7 µM in test [2]; 99.6 µM in test [7]; 44.4 µM in test [3]; greater than 100 µM in test [8]; 38.9 µM in test [4]. The TGI in test [6] stood at 77.6 µM.
As to `CCOP(=O)(OCC)C1CC(n2cc(C)c(=O)[nH]c2=O)OC1CO` (centres undefined), the TGI in test [1], in test [2], in test [3], in test [8], in test [4] and in test [5] was greater than 100 µM throughout. In test [6], the TGI was greater than 100 µM.
Regarding `OC(CCNCc1ccccc1)c1ccc2ccccc2c1` (centres undefined), the TGI in test [1] came to 72.2 µM; in test [2] it was 61.7 µM; in test [7], 49.4 µM; in test [3] it was 72.9 µM; in test [8] it was 31.7 µM; in test [4], 43.1 µM. Besides, the TGI in test [6] was 38.8 µM.
In the case of `NCCCN(CCCN)CCN(CCN(CCCN)CCCN)CCN(CCCN)CCCN`, the TGI in test [1], in test [2], in test [7], in test [3], in test [4] and in test [5] was greater than 100 µM throughout. In test [6], this compound showed a TGI greater than 100 µM.
Turning to `COc1ccc(-c2cc(-c3ccc(Nc4ccnc5cc(Cl)ccc45)cc3)[nH]c(=O)c2C#N)c2ccccc12`, the TGI is 46.9 µM in test [1]; greater than 100 µM in test [7]; greater than 100 µM in test [8]; greater than 100 µM in test [4]; 30.8 µM in test [5]; greater than 100 µM in test [6].
Consider `NNC(=O)Cn1c2ccc(Br)cc2c2nc3ccccc3nc21`, for which the TGI in test [1], in test [2], in test [7], in test [8] and in test [4] was greater than 100 µM throughout.
On to `CCOC(=O)C(NC(=O)CC)(Nc1cc(C)on1)C(F)(F)F` (centres undefined), for which the TGI in test [1], in test [2], in test [7], in test [4] and in test [6] was greater than 100 µM throughout.
As for `CCOC(=O)c1cc2c(C(=O)c3ccc([N+](=O)[O-])cc3)c(C(C)=O)ccc2[nH]1`, the TGI in test [1] is greater than 100 µM; in test [2], greater than 100 µM; in test [3], greater than 100 µM; in test [8] it was greater than 100 µM; in test [4], greater than 100 µM; in test [5] it was 44.6 µM. The compound also registered a TGI in test [6] greater than 100 µM.
As to `O=C(O)c1ccn(-c2cccc(-n3ccc(C(=O)O)n3)n2)n1`, the TGI in test [1], in test [2], in test [7], in test [3], in test [8] and in test [4] was greater than 100 µM throughout. Moreover, the TGI in test [6] was greater than 100 µM.
Turning to `O=C1c2cc3c(cc2CC12Cc1ccc4c(c1C2=O)CCCC4)CCCC3` (centres undefined), the TGI was greater than 100 µM in test [2]; greater than 100 µM in test [7]; 62.8 µM in test [3]; greater than 100 µM in test [4]; 64.2 µM in test [5]; greater than 100 µM in test [6].
In the case of `CC(=O)Nc1ccc(OC2=CCN(C)CC2)cc1`, the TGI in test [1], in test [2], in test [7], in test [3], in test [8] and in test [4] was greater than 100 µM each time. The TGI in test [6] is greater than 100 µM.
Consider `COc1ccc(C(=O)/C=C/c2c(Cl)c3c(c(OC)c2Cl)OCC(=O)N3)cc1`, for which the GI50 is 2.62 µM in test [7]; 2.56 µM in test [3]; 1.81 µM in test [4]; 2.44 µM in test [5]; 2.01 µM in test [6]. The TGI in test [7] was 7.08 µM; in test [3], 8.04 µM; in test [4] it was 3.66 µM; in test [5], 8.88 µM; in test [6], 6.14 µM.
Take `CC1(C)C2C=CC1(C)C1(CC2)OCCO1` (centres undefined): the TGI in test [1], in test [2], in test [7], in test [3], in test [8] and in test [4] was greater than 100 µM each time. Also, the TGI in test [6] is greater than 100 µM.
`CSC1=N/C(=C\c2ccco2)C(=O)N1CN1CCOCC1`: the TGI in test [1] is greater than 88.7 µM; in test [2], greater than 100 µM; in test [7], greater than 100 µM; in test [3] it was greater than 100 µM; in test [8], greater than 100 µM; in test [4], greater than 95.4 µM. In addition, in test [6], the TGI was greater than 100 µM.
For `COC1OC2COC1(OC)C1OC(C)(C)OC21` (centres undefined), the TGI in test [1], in test [2], in test [7], in test [3], in test [8] and in test [4] was greater than 100 µM each time. For the same compound, in test [6], the TGI was greater than 100 µM.
Turning to `Nc1ccccc1CC(O)C(=O)O` (centres undefined), the TGI in test [1], in test [2], in test [7], in test [8], in test [4] and in test [5] was greater than 100 µM in each case. In test [6], this compound gave a TGI greater than 100 µM.
As to `O=c1ccn(CC2(CO)CC(Cc3ccccc3)C2)c(=O)[nH]1` (centres undefined), the TGI in test [1], in test [2], in test [7], in test [3], in test [8] and in test [4] was greater than 100 µM in each case. In test [6], this compound returned a TGI greater than 100 µM.
For the compound `Cc1c(NC(=O)CSC(=S)N2CCN(Cc3ccccc3)CC2)c(=O)n(-c2ccccc2)n1C`, the TGI in test [1], in test [2], in test [7], in test [3], in test [8] and in test [4] was greater than 100 µM each time. This compound also returned a TGI in test [6] greater than 100 µM.
Regarding `O=c1[nH]nc(-c2ccccc2)n1/N=C/c1cccnc1`, the TGI in test [1], in test [2], in test [7], in test [8], in test [4] and in test [5] was greater than 100 µM throughout. The same compound displayed a TGI in test [6] greater than 100 µM.
`CC1(C)[C@H]2CC[C@]1(C)[C@H](OC(=O)NNC(=O)O[C@@H]1C[C@@H]3CC[C@@]1(C)C3(C)C)C2`: the TGI came out at 24.7 µM in test [1]; 20.9 µM in test [2]; 24.1 µM in test [3]; 37.3 µM in test [8]; 72.9 µM in test [4]; 33.6 µM in test [5]. In test [6], this compound came in with a TGI of 27.5 µM.
Take `CC1CC/C(=C\c2ccc(Cl)cc2)C2OC(N)=C(C#N)C(c3ccc(Cl)cc3)=C12` (centres undefined): the TGI turned out to be 26.5 µM in test [1]; 20.7 µM in test [2]; 25.9 µM in test [7]; 28.8 µM in test [8]; 89 µM in test [4]; 23.1 µM in test [6].
